Measured values published in ChEMBL document CHEMBL1122102, “Hydrogen bonding and anesthetic potency” (J Med Chem, 1982).
Blank lines part the entries; values can stand above or below the molecule they belong to.

Legend:
[1] = Partition coefficient was determined in oil/gas system and value was reported; assay type: ADME
Canis familiaris = experiment: Evaluated in vitro for anesthetic activity in dog and minimum alveolar concentration (MAC) was determined; assay type: functional, Canis lupus familiaris; design: unit not given here
Homo sapiens = experiment: Evaluated in vitro for anesthetic activity in man and minimum alveolar concentration (MAC) was determined; assay type: functional; design: unit not given here
Mus musculus = experiment: Evaluated in vitro for anesthetic activity in mice and ED50 value was reported; assay type: functional

Structure (SMILES): ClC(Cl)Cl [CHLOROFORM]
MAC (Canis familiaris): 0.77
MAC (Homo sapiens): 0.5
ED50 (Mus musculus): 0.84

Structure (SMILES): FC(F)OC(F)(F)C(F)Cl (stereo not drawn)
Partition coefficient [1]: 98
MAC (Canis familiaris): 2.06
MAC (Homo sapiens): 1.68

More lines, main results first:

Partition coefficient [1]: 950
Structure (SMILES): COC(F)(F)C(Cl)Cl [METHOXYFLURANE]
MAC (Canis familiaris): 0.24
MAC (Homo sapiens): 0.16
ED50 (Mus musculus): 0.22

Partition coefficient [1]: 220
Structure (SMILES): FC(F)(F)C(Cl)Br (stereo not drawn) [HALOTHANE]
MAC (Canis familiaris): 0.87
MAC (Homo sapiens): 0.74
ED50 (Mus musculus): 0.77

Partition coefficient [1]: 97
Structure (SMILES): FC(F)OC(Cl)C(F)(F)F (stereo not drawn) [ISOFLURANE]
MAC (Canis familiaris): 1.28
MAC (Homo sapiens): 1.15
ED50 (Mus musculus): 0.57
